From patent US20230085307A1, “PYRIDAZINONE COMPOUND AND HERBICIDE” (NISSAN CHEMICAL CORPORATION, priority 2019, published 2023)

What was measured:
[1] = test system: barnyard grass; experiment: Test Example 3: herbicidal effect by foliage application, Wagner pot (Table 18, symbol H); format: in vivo, barnyard grass (Echinochloa crus-galli); settings: 80 g/ha
In short: (§1)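 Plants were sown in alluvial soil held under 0.1–0.5 cm standing water and grown 14 days in a greenhouse at 25–30 °C. An emulsifiable formulation, water-diluted to the set dose, was then sprayed onto the foliage, and effects were scored three weeks later using previously defined criteria.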

[2] = test system: Chinese sprangletop; experiment: Test Example 3: herbicidal effect by foliage application, Wagner pot (Table 18, symbol D); format: in vivo, chinese sprangletop (Leptochloa chinensis); settings: 80 g/ha
In short: as §1

[3] = test system: rice flat sedge; experiment: Test Example 3: herbicidal effect by foliage application, Wagner pot (Table 18, symbol E); format: in vivo, rice flat sedge (Cyperus iria); settings: 80 g/ha
In short: as §1

[4] = test system: southern crabgrass; experiment: Test Example 4: herbicidal effect by soil treatment (Table 19, symbol F); format: in vivo, southern crabgrass (Digitaria ciliaris); settings: AAH 80 g/ha
In short: (§2)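 Applied as a water-diluted emulsion, the compound was sprayed onto soil covering newly sown seeds. Evaluation came three weeks after application, in a greenhouse held at 25° C. to 30° C.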

[5] = test system: green foxtail; experiment: Test Example 4: herbicidal effect by soil treatment (Table 19, symbol G); format: in vivo, green foxtail (Setaria viridis); settings: AAH 80 g/ha
In short: as §2

[6] = test system: barnyard grass; experiment: Test Example 4: herbicidal effect by soil treatment (Table 19, symbol H); format: in vivo, barnyard grass (Echinochloa crus-galli); settings: AAH 80 g/ha
In short: as §2

[7] = test system: wild oat; experiment: Test Example 4: herbicidal effect by soil treatment (Table 19, symbol I); format: in vivo, wild oat (Avena fatua); settings: AAH 80 g/ha
In short: as §2

[8] = test system: blackgrass; experiment: Test Example 4: herbicidal effect by soil treatment (Table 19, symbol J); format: in vivo, blackgrass (Alopecurus myosuroides); settings: AAH 80 g/ha
In short: as §2

[9] = test system: Italian ryegrass; experiment: Test Example 4: herbicidal effect by soil treatment (Table 19, symbol K); format: in vivo, Italian ryegrass (Lolium multiflorum); settings: AAH 80 g/ha
In short: as §2

[10] = test system: windgrass; experiment: Test Example 4: herbicidal effect by soil treatment (Table 19, symbol L); format: in vivo, windgrass (Apera spica-venti); settings: AAH 80 g/ha
In short: as §2

[11] = test system: velvetleaf; experiment: Test Example 4: herbicidal effect by soil treatment (Table 19, symbol M); format: in vivo, velvetleaf (Abutilon theophrasti); settings: AAH 80 g/ha
In short: as §2

[12] = test system: redroot pigweed; experiment: Test Example 4: herbicidal effect by soil treatment (Table 19, symbol N); format: in vivo, redroot pigweed (Amaranthus retroflexus); settings: AAH 80 g/ha
In short: as §2

[13] = test system: lambsquarters; experiment: Test Example 4: herbicidal effect by soil treatment (Table 19, symbol O); format: in vivo, lambsquarters (Chenopodium album); settings: AAH 80 g/ha
In short: as §2

[14] = test system: chickweed; experiment: Test Example 4: herbicidal effect by soil treatment (Table 19, symbol P); format: in vivo, common chickweed (Stellaria media); settings: AAH 80 g/ha
In short: as §2

[15] = test system: persian speedwell; experiment: Test Example 4: herbicidal effect by soil treatment (Table 19, symbol R); format: in vivo, Persian speedwell (Veronica persica); settings: AAH 80 g/ha
In short: as §2

[16] = test system: southern crabgrass; experiment: Test Example 5: herbicidal effect by foliage application, plastic box (Table 20, symbol F); format: in vivo, southern crabgrass (Digitaria ciliaris); settings: foliage application, AAH 80 g/ha, three weeks after application
In short: (§3)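 Sow seeds spot-wise in sterilized diluvial soil; cover with ~1.5 cm soil. Grow 14 days in greenhouse, 25° C. to 30° C. Spray foliage with emulsion diluted to predetermined amount. Rate effect after 3 weeks.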

[17] = test system: green foxtail; experiment: Test Example 5: herbicidal effect by foliage application, plastic box (Table 20, symbol G); format: in vivo, green foxtail (Setaria viridis); settings: foliage application, AAH 80 g/ha, three weeks after application
In short: as §3

[18] = test system: barnyard grass; experiment: Test Example 5: herbicidal effect by foliage application, plastic box (Table 20, symbol H); format: in vivo, barnyard grass (Echinochloa crus-galli); settings: foliage application, AAH 80 g/ha, three weeks after application
In short: as §3

[19] = test system: wild oat; experiment: Test Example 5: herbicidal effect by foliage application, plastic box (Table 20, symbol I); format: in vivo, wild oat (Avena fatua); settings: foliage application, AAH 80 g/ha, three weeks after application
In short: as §3

[20] = test system: blackgrass; experiment: Test Example 5: herbicidal effect by foliage application, plastic box (Table 20, symbol J); format: in vivo, blackgrass (Alopecurus myosuroides); settings: foliage application, AAH 80 g/ha, three weeks after application
In short: as §3

[21] = test system: Italian ryegrass; experiment: Test Example 5: herbicidal effect by foliage application, plastic box (Table 20, symbol K); format: in vivo, Italian ryegrass (Lolium multiflorum); settings: foliage application, AAH 80 g/ha, three weeks after application
In short: as §3

[22] = test system: windgrass; experiment: Test Example 5: herbicidal effect by foliage application, plastic box (Table 20, symbol L); format: in vivo, windgrass (Apera spica-venti); settings: foliage application, AAH 80 g/ha, three weeks after application
In short: as §3

[23] = test system: velvetleaf; experiment: Test Example 5: herbicidal effect by foliage application, plastic box (Table 20, symbol M); format: in vivo, velvetleaf (Abutilon theophrasti); settings: foliage application, AAH 80 g/ha, three weeks after application
In short: as §3

[24] = test system: redroot pigweed; experiment: Test Example 5: herbicidal effect by foliage application, plastic box (Table 20, symbol N); format: in vivo, redroot pigweed (Amaranthus retroflexus); settings: foliage application, AAH 80 g/ha, three weeks after application
In short: as §3

[25] = test system: lambsquarters; experiment: Test Example 5: herbicidal effect by foliage application, plastic box (Table 20, symbol O); format: in vivo, lambsquarters (Chenopodium album); settings: foliage application, AAH 80 g/ha, three weeks after application
In short: as §3

[26] = test system: chickweed; experiment: Test Example 5: herbicidal effect by foliage application, plastic box (Table 20, symbol P); format: in vivo, common chickweed (Stellaria media); settings: foliage application, AAH 80 g/ha, three weeks after application
In short: as §3

[27] = test system: persian speedwell; experiment: Test Example 5: herbicidal effect by foliage application, plastic box (Table 20, symbol R); format: in vivo, Persian speedwell (Veronica persica); settings: foliage application, AAH 80 g/ha, three weeks after application
In short: as §3

| SMILES | herbicidal effect on H (barnyard grass), rating 0-5 [1] | herbicidal effect on D (Chinese sprangletop), rating 0-5 [2] | herbicidal effect on E (rice flat sedge), rating 0-5 [3] | F: southern crabgrass, herbicidal effect rating [4] | G: green foxtail, herbicidal effect rating [5] | H: barnyard grass, herbicidal effect rating [6] | I: wild oat, herbicidal effect rating [7] | J: blackgrass, herbicidal effect rating [8] | K: Italian ryegrass, herbicidal effect rating [9] | L: windgrass, herbicidal effect rating [10] | M: velvetleaf, herbicidal effect rating [11] | N: redroot pigweed, herbicidal effect rating [12] | O: lambsquarters, herbicidal effect rating [13] | P: chickweed, herbicidal effect rating [14] | R: persian speedwell, herbicidal effect rating [15] | F: southern crabgrass, herbicidal effect [16] | G: green foxtail, herbicidal effect [17] | H: barnyard grass, herbicidal effect [18] | I: wild oat, herbicidal effect [19] | J: blackgrass, herbicidal effect [20] | also measured |
| --- | --- | --- | --- | --- | --- | --- | --- | --- | --- | --- | --- | --- | --- | --- | --- | --- | --- | --- | --- | --- | --- |
| COc1nn(C)c(=O)c(-c2c(-c3ccc(OC(F)(F)F)cc3)sc3ccccc23)c1O [1-162] | 4 (Herbicidal rate of 70% or more and less than 90%) | 3 (Herbicidal rate of 40% or more and less than 70%) | 5 (Herbicidal rate of 90% or more (almost completely withered)) | 0 (Herbicidal rate of 5% or less (almost no effect)) | 0 (Herbicidal rate of 5% or less (almost no effect)) | 0 (Herbicidal rate of 5% or less (almost no effect)) | 0 (Herbicidal rate of 5% or less (almost no effect)) | 0 (Herbicidal rate of 5% or less (almost no effect)) | 0 (Herbicidal rate of 5% or less (almost no effect)) | 0 (Herbicidal rate of 5% or less (almost no effect)) | 0 (Herbicidal rate of 5% or less (almost no effect)) | 1 (Herbicidal rate of 5% or more and less than 20%) | 4 (Herbicidal rate of 70% or more and less than 90%) | 2 (Herbicidal rate of 20% or more and less than 40%) | 0 (Herbicidal rate of 5% or less (almost no effect)) | 0 (Herbicidal rate of 5% or less (almost no effect)) | 0 (Herbicidal rate of 5% or less (almost no effect)) | 0 (Herbicidal rate of 5% or less (almost no effect)) | 0 (Herbicidal rate of 5% or less (almost no effect)) | 0 (Herbicidal rate of 5% or less (almost no effect)) | K: Italian ryegrass, herbicidal effect [21]: 0 (Herbicidal rate of 5% or less (almost no effect)); L: windgrass, herbicidal effect [22]: 0 (Herbicidal rate of 5% or less (almost no effect)); M: velvetleaf, herbicidal effect [23]: 3 (Herbicidal rate of 40% or more and less than 70%); N: redroot pigweed, herbicidal effect [24]: 4 (Herbicidal rate of 70% or more and less than 90%); O: lambsquarters, herbicidal effect [25]: 3 (Herbicidal rate of 40% or more and less than 70%); P: chickweed, herbicidal effect [26]: 5 (Herbicidal rate of 90% or more (almost completely withered)); R: persian speedwell, herbicidal effect [27]: 5 (Herbicidal rate of 90% or more (almost completely withered)) |
| COc1nn(C)c(=O)c(-c2c(-c3ccc(-c4ccccc4)cc3)sc3ccccc23)c1O [1-166] | 4 (Herbicidal rate of 70% or more and less than 90%) | 4 (Herbicidal rate of 70% or more and less than 90%) | 5 (Herbicidal rate of 90% or more (almost completely withered)) | 0 (Herbicidal rate of 5% or less (almost no effect)) | 0 (Herbicidal rate of 5% or less (almost no effect)) | 0 (Herbicidal rate of 5% or less (almost no effect)) | 0 (Herbicidal rate of 5% or less (almost no effect)) | 0 (Herbicidal rate of 5% or less (almost no effect)) | 0 (Herbicidal rate of 5% or less (almost no effect)) | 0 (Herbicidal rate of 5% or less (almost no effect)) | 0 (Herbicidal rate of 5% or less (almost no effect)) | 0 (Herbicidal rate of 5% or less (almost no effect)) | 0 (Herbicidal rate of 5% or less (almost no effect)) | 4 (Herbicidal rate of 70% or more and less than 90%) | 1 (Herbicidal rate of 5% or more and less than 20%) | 0 (Herbicidal rate of 5% or less (almost no effect)) | 0 (Herbicidal rate of 5% or less (almost no effect)) | 0 (Herbicidal rate of 5% or less (almost no effect)) | 0 (Herbicidal rate of 5% or less (almost no effect)) | 0 (Herbicidal rate of 5% or less (almost no effect)) | K: Italian ryegrass, herbicidal effect [21]: 0 (Herbicidal rate of 5% or less (almost no effect)); L: windgrass, herbicidal effect [22]: 0 (Herbicidal rate of 5% or less (almost no effect)); M: velvetleaf, herbicidal effect [23]: 0 (Herbicidal rate of 5% or less (almost no effect)); N: redroot pigweed, herbicidal effect [24]: 3 (Herbicidal rate of 40% or more and less than 70%); O: lambsquarters, herbicidal effect [25]: 2 (Herbicidal rate of 20% or more and less than 40%); P: chickweed, herbicidal effect [26]: 3 (Herbicidal rate of 40% or more and less than 70%); R: persian speedwell, herbicidal effect [27]: 5 (Herbicidal rate of 90% or more (almost completely withered)) |
